Test results from patent US20240252472A1, “COMBINATIONS FOR TREATING CANCER” (Purdue Pharma L.P., priority 2023, published 2024).

Assays:
[1] = tested on: subcutaneous plasmacytoma derived from MM1.S cells; experiment: Second subcutaneous plasmacytoma model, CB17-SCID mice; format: in vivo; conditions: EDO-S101 30 mg/kg i.v. weekly, daratumumab 8 mg/kg i.p. weekly, 4 weeks; vehicle 34 days
Excerpt: For the second subcutaneous human plasmacytoma model, CB17-SCID mice (The Jackson Laboratory) were used. CB17-SCID mice were randomised into groups (n=5). The design of the experiment (treatment doses and time schedule) was identical to the experiment described above with NSG mice except for the inoculation of NK cells, since CB17-SCID mice have their own functional NK cells.
For the second subcutaneous human plasmacytoma model, CB17-SCID mice (20 female mice, 5-6 weeks old; from The Jackson Laboratory) were used. The design of the experiment (treatment doses and time schedule) was identical to the one performed with NSG mice except for the inoculation of human NK cells, since CB17-SCID mice hold their own functional NK cells (Dorshkind et al., J Immunol 134:3798-3801, 1985).
In the second xenograft plasmacytoma model, CB17-SCID mice bearing a subcutaneous plasmacytoma derived from MM1.S cells were randomized to receive vehicle, daratumumab, EDO-S101 or the double combination. Mice were treated with EDO-S101 on Mondays and daratumumab was administered on Tuesdays. […] Furthermore, statistical differences in survival were also found between the combination vs vehicle (58 days±2.739 vs 34 days±2.191 days, respectively; p=0.003).

[2] = tested on: c-Jun and c-Fos (subunits of the transcription factor AP-1); experiment: Western blot of transcription factors in MM cell lines; format: cell-based, human; conditions: MM1.S and RPMI-8226 (two of four lines); 1 and 2.5 μM, 48 h
Method: (§1) Western Blot Analysis Cells were collected and centrifuged at 1200 rpm for 5 minutes at 4° C. Cells were washed with PBS and lysed in ice-cold lysis buffer [140 mmol/L NaCl, 10 mmol/L EDTA, 10% glycerol, 1% NP40, 20 mmol/L Tris (pH 7), 1 μMol/L pepstatin, 1 μg/mL aprotinin, 1 μg/mL leupeptin, 1 mmol/L sodium orthovanadate]. Samples were centrifuged at 10,000×g at 4° C. for 10 minutes, and supernatants were transferred to new tubes and western blots were performed following standard procedures. CD38 and anti-α-tubulin primary antibodies used in Western blot analyses were obtained from Cell Signaling (Boston, MA, USA). The horseradish peroxidase-conjugated secondary antibodies were from GE Healthcare (Chicago, IL, USA).
(§2) To determine the mechanism by which EDO-S101 increases CD38 expression, the expression of the transcription factors NF-κB, AP-1 and IRF-1 which are known to be involved in regulating the expression of CD38 was evaluated. Treatment with EDO-S101 (1 and 2.5 μM) for 48 h increased the expression of c-Jun and c-Fos (subunits of the transcription factor AP-1) in two (MM1.S and RPMI-8226) of the four myeloma cell lines tested (FIG. 5). Additionally, EDO-S101 increased IRF-1 expression in the MOLP-8 cell line (FIG. 5).

IRF-1 = experiment: as above; format: cell-based, human; conditions: MOLP-8 cell line; 1 and 2.5 μM, 48 h
Method: as §1, §2

[3] = tested on: MM cell lines (MM.1S, RPMI-8226, MOLP-8); experiment: NK-cell direct cytotoxicity on pre-treated MM cells; format: cell-based, human; conditions: pre-treatment 2.5 μM 48 hours, NK cells ratio 1:1, 4 hours, vs DMSO-pretreated
Method: ADCC, CDC and apoptosis via cross-linking To assess the effect of tinostamustine pre-treatment on cytotoxic mechanisms mediated by daratumumab, MM cell lines were first incubated in presence of tinostamustine (2.5 μM) or DMSO for 48 hours. Cells were then washed to remove tinostamustine or DMSO from the culture medium, and the corresponding cytotoxic assay (ADCC, CDC or apoptosis via cross-linking) was performed.
For the evaluation of ADCC, tinostamustine or DMSO pre-treated cells were cocultured with NK cells obtained from healthy donors in the presence of daratumumab (1 μg/ml) or the corresponding isotype control for 4 hours (ratio 1:1). Briefly, peripheral blood mononuclear cells (PBMCs) were isolated from healthy donor buffy coats by Lymphoprep density gradient centrifugation. […] In all three assays, the cytotoxic effect on MM cells was evaluated by flow cytometry with Annexin V/7AAD staining after treatment with daratumumab. […]
MM cells (MM1.S, RPMI-8226, MOLP-8 cells pre-treated with 0 or 2.5 μM EDO-S101 in accordance with the methods outlined above) were co-cultured with NK-cells (ratio 1:1), in the presence of daratumumab (1 μg/mL) or the corresponding isotype control, for 4 hours at 37° C. […] ADCC was then evaluated using flow cytometry in accordance with the methods outlined above, using the following panel: CD38me-FITC/AnnexinV-PE/7AAD/CD45-APC.

## Cn1c(CCCCCCC(=O)NO)nc2cc(N(CCCl)CCCl)ccc21 [EDO-S101, 7-(5-(bis(2-chloroethyl)amino)-1-methyl-1H-benzo[d]imidazol-2-yl)-N-hydroxyheptanamide]
[1]
  overall median survival: 51 days
[2]
  expression of c-Jun and c-Fos: increased
IRF-1
  IRF-1 expression: increased
[3]
  percentage of dead myeloma cells, NK-cell direct cytotoxicity (no daratumumab): significantly enhances
[3]; listed as tinostamustine
  percentage of dead myeloma cells, NK-cell direct cytotoxicity (no daratumumab): significantly increased
